Results as given in patent publication US4474800A, “Epoxysuccinyl amino acid derivatives” (Taisho Pharmaceutical Co., Ltd., priority 1980, dated 1984).

Key:
[1] = target: T1, CANP prepared from a muscle of hereditary muscular dystrophy chicken (Gallus gallus, UniProt P00789); experiment: CANP inhibitory activity (method of Ishiura et al.); type: biochemical; conditions: 50% inhibition in molar ratio to the enzyme
T1 construct: from tissue; host or cells: muscle of hereditary muscular dystrophy chicken
T1 sequence (P00789 1-705): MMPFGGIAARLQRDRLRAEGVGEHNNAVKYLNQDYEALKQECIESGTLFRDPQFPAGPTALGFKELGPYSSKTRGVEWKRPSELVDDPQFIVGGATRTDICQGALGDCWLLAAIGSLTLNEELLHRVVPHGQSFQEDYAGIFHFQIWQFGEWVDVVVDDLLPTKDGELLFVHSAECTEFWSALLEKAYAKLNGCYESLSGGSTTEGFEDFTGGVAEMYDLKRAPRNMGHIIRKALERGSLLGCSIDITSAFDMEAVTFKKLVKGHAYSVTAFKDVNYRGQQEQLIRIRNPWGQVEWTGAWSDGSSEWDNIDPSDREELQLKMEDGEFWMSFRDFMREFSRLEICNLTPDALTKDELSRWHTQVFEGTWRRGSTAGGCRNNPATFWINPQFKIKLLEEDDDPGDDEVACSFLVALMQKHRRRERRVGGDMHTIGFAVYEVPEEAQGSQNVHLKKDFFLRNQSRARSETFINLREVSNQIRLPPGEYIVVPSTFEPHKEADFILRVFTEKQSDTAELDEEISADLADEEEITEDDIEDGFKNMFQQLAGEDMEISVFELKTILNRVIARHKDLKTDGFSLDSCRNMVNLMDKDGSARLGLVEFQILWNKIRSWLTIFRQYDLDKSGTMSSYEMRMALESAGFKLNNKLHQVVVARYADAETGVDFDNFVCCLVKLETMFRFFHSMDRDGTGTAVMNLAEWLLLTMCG
Procedure: Their muscular dystrophy inhibitory activity was assayed by the method of Ishiura et al., [J. of Biochem., 84, 225 (1978)] using CANP prepared from a muscle of hereditary muscular dystrophy chicken, and the resulting value for 50% inhibition in the molar ratios for the enzyme expressed as ID50 (mole/mole) is shown in Table 1 below.

papain = target: T2, papain (Carica papaya, UniProt P00784); experiment: Papain inhibitory activity (method of K. Hanada et al.); type: biochemical; conditions: papain 80 μg/ml, Sigma, twice crystallized
T2 construct: purchased Sigma Chem. Co
T2 sequence (P00784 134-345): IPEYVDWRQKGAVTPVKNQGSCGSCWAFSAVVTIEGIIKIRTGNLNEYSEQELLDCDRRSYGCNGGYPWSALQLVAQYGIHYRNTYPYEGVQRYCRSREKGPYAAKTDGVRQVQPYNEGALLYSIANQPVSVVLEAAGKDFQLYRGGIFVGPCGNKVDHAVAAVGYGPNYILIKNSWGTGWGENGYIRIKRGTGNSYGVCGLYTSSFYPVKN
Procedure: Papain inhibitory activity of the compounds of the present invention was assayed by the method of K. Hanada et al. [Agric. Biol. Chem., 42, (3) 523 (1978)] using papain (80 μg/ml, Sigma Chem. Co.) after twice crystallization.

[2] = Concentration in rat plasma after subcutaneous administration; type: in vivo; conditions: sc, rats, 50 mg/kg, an hour after administration
Procedure: The compounds of the present invention are better absorbed by the subcutaneous route in mammals such as rats or rabbits, as compared with the epoxysuccinic acid derivatives of the German Patent Laid Open Application described above and Chemical Abstracts, 87, 68129a (1977). To determine absorption, these compounds were administered subcutaneously to rats at a dose of 50 mg/kg, and the concentration of the test compound in rat plasma at an hour after the administration is shown in following Table 1.

Structure (SMILES) | CANP Inhibitory Activity ID50 (mole/mole) [1] | Papain inhibitory activity ID50 (amount of inhibitor for 50% inhibition) (papain) | concentration at 1 h [2]
CCOC(=O)C1OC1C(=O)N[C@@H](CC(C)C)C(=O)OCc1ccccc1 (stereo partly drawn) [C, N--(3ethoxy-carbonyloxirane-2-carbonyl)-L-leucine benzyl ester, reference compound] | 580 mole/mole |  | 
CC(C)C[C@H](NC(=O)C1OC1C(=O)O)C(=O)O (stereo partly drawn) [E, N--(3carboxyoxirane-2-carbonyl)-L-leucine, reference compound] | 4,600 mole/mole |  | 
CC(C)C[C@H](NC(=O)C1OC1C(=O)OCc1ccccc1)C(=O)NCCCCCCCNC(=O)OCc1ccccc1 (mixture of isomers) [Compound 1, N-[N-(DL-3-trans-benzyloxycarbonyloxirane-2-carbonyl)-L-leucyl]-N'-benzyloxycarbonyl-1,7-diaminoheptane] |  | 0.302 µg | 
CC(C)C[C@H](NC(=O)C1OC1C(=O)OCc1ccccc1)C(=O)NCCNC(=O)OCc1ccccc1 (mixture of isomers) [Compound 3, N-[N-(DL-3-trans-benzyloxycarbonyloxirane-2-carbonyl)-L-leucyl]-N'-benzyloxycarbonyl-1,2-diaminoethane] |  | 0.203 µg | 
CC(C)C[C@H](NC(=O)C1OC1C(=O)OCc1ccccc1)C(=O)NCCCCCNC(=O)OCc1ccccc1 (mixture of isomers) [Compound 2, N-[N-(DL-3-trans-benzyloxycarbonyloxirane-2-carbonyl)-L-leucyl]-N'-benzyloxycarbonyl-1,5-diaminopentane] | 121 mole/mole | 0.481 µg | 1500 ng/mL
O=C(O)[C@H]1O[C@@H]1C(=O)OCc1ccccc1 (relative stereo) [B, Benzyl hydrogen epoxysuccinate, reference compound] | 410 mole/mole |  | 
CC(C)C[C@H](NC(=O)C1OC1C(=O)OCc1ccccc1)C(=O)NCCCCNC(=O)OCc1ccccc1 (mixture of isomers) [Compound 10, N-[N-(DL-3-trans-benzyloxycarbonyloxirane-2-carbonyl)-L-leucyl]-N'-benzyloxycarbonyl-1,4-diaminobutane] | 78 mole/mole | 0.260 µg | 1600 ng/mL
CC(C)C[C@H](NC(=O)C1OC1C(=O)OC1CCCC1)C(=O)NCCCCNC(=O)OCc1ccccc1 (mixture of isomers) [Compound 7, N-[N-(DL-3-trans-cyclopentyloxycarbonyloxirane-2-carbonyl)-L-leucyl]-N'-benzyloxycarbonyl-1,4-diaminobutane] |  | 0.164 µg | 
CC(C)C[C@H](NC(=O)C1OC1C(=O)OC1CCCCC1)C(=O)NCCCCNC(=O)OCc1ccccc1 (mixture of isomers) [Compound 6, N-[N-(DL-3-trans-cyclohexyloxycarbonyloxirane-2-carbonyl)-L-leucyl]-N'-benzyloxycarbonyl-1,4-diaminobutane] | 75 mole/mole | 0.142 µg | 1500 ng/mL
CCOC(=O)[C@H]1O[C@@H]1C(=O)O (relative stereo) [A, Ethyl hydrogen epoxysuccinate, reference compound] | 5,400 mole/mole |  | 
CC(C)[C@H](NC(=O)C1OC1C(=O)OCc1ccccc1)C(=O)NCCCCNC(=O)OCc1ccccc1 (mixture of isomers) [Compound 4, N-[N-(DL-3-trans-benzyloxycarbonyloxirane-2-carbonyl)-L-valyl]-N'-benzyloxycarbonyl-1,4-diaminobutane] | 113 mole/mole | 0.436 µg | 1200 ng/mL
CC(C)C[C@H](NC(=O)C1OC1C(=O)O)C(=O)NCCCCNC(=O)OCc1ccccc1 (mixture of isomers) [Compound 11, N-[N-(DL-3-trans-carboxyoxirane-2-carbonyl)-L-leucyl]-N'-benzyloxycarbonyl-1,4-diaminobutane] | 19 mole/mole | 0.118 µg | 13000 ng/mL
CC(C)C[C@H](NC(=O)C1OC1C(=O)OCc1ccccc1)C(=O)NCCCCNC(=O)c1ccccc1 (mixture of isomers) [Compound 9, N-[N-(DL-3-trans-benzyloxycarbonyloxirane-2-carbonyl)-L-leucyl]-N'-benzoyl-1,4-diaminobutane] | 89 mole/mole | 0.181 µg | 1300 ng/mL
CC(C)C[C@H](NC(=O)C1OC1C(=O)O)C(=O)NCCCCN (mixture of isomers) [Compound 12, N-[N-(DL-3-trans-carboxyoxirane-2-carbonyl)-L-leucyl]-1,4-diaminobutane] | 55 mole/mole | 0.106 µg | 25000 ng/mL
CC(=O)NCCCCNC(=O)[C@H](CC(C)C)NC(=O)C1OC1C(=O)OCc1ccccc1 (mixture of isomers) [Compound 8, N-[N-(DL-3-trans-benzyloxycarbonyloxirane-2-carbonyl)-L-leucyl]-N'-acetyl-1,4-diaminobutane] | 100 mole/mole | 0.123 µg | 1800 ng/mL
CC[C@H](C)[C@H](NC(=O)C1OC1C(=O)OCc1ccccc1)C(=O)NCCCCNC(=O)OCc1ccccc1 (mixture of isomers) [Compound 5, N-[N-(DL-3-benzyloxycarbonyloxirane-2-carbonyl)-L-isoleucyl]-N'-benzyloxycarbonyl-1,4-diaminobutane] | 92 mole/mole | 0.323 µg | 1400 ng/mL
